Counter-ions that a name gives are not always drawn.
What was measured:
[1] = test system: conjugated diene formation; assay: Conjugated Diene Formation Assay (rat brain synaptosomes); assay type: biochemical; settings: 100 μM (or less) of drug; active = inhibition by 50% or more
Text: The formation of conjugated dienes as assayed by Braughler, J. Neurochem., 44, 1282 (1985), Bucher, Fund. Applied Tox., 3, 222 (1983) and Tein, Arch. Biochem. Biophy., 216, 142 (1982) is a standard pharmacological laboratory procedure useful for identifying compounds which inhibit lipid peroxidation. Since lipid peroxidation is involved in the pathophysiology of central nervous system trauma, compounds which inhibit conjugated diene formation are useful in treating the conditions listed below.
44, 1282 (1985). Synaptosomal suspension (10 μl) is added to 1 ml of physiological (normal) saline containing 1% Lubrol PX (Sigma Chemical Co. St. Louis, Mo.), 100 μM hydrogen peroxide and 100 μM (or less) of the drug to be tested prepared in either absolute ethanol or water depending upon solubility. The reaction is started by the rapid addition of 200 μM ferrous ammonium sulfate prepared in argon-purged water. The sample is rapidly mixed and the change in absorbence at 232 nm is followed in a Gifford Response Spectrophotometer equipped with a rapid sampler. Due to the rapidity of the reaction, rapid addition of the iron, rapid mixing and sampling are obligatory to the accuracy of the assay. For best results absorbence readings of one/sec should be started within 5 sec following the addition of iron. The initial linear rate of absorbence change during the first 30 sec of reaction are compared with the rate of a reaction containing all reagents except synaptosomes. The difference in rates is the rate of conjugated diene formation. Rates with drug are compared to rates obtained in the absence of drug and the % inhibition is calculated. A compound that inhibits conjugated diene formation by 50% or more is considered to be "active".

arachidonic acid = assay: Arachidonic Acid Antagonism Assay (AAAA), LD50 of sodium arachidonate; assay type: in vivo, Charles River male CF-1 mice; settings: for arachidonic acid antagonism (activity in words): test compound IV 15 min before sodium arachidonate, LD50 outside 95% confidence interval of control
Procedure: Since these metabolites contribute to the pathological problems associated with stroke, spinal trauma and head injury, compounds which antagonize arachidonic acid are useful in treating stroke, spinal trauma and head injury.
While not necessary to determine arachidonic acid antagonism, the above assay has been modified as follows: Charles River male CF-1 mice weighing 18-22 g are treated IV with the test compound dissolved in 1.0% Tween-80 and 0.1% hydrochloric acid in distilled water, 0.2 ml total volume. Fifteen minutes later sodium arachidonate (90% pure) in physiological (normal) saline is injected into the tail vein. The LD50 is measured using the Spearman-Karber method with a log dose interval of 0.05 (N=6). Compounds which elevate the LD50 outside of the 95% confidence interval of the control LD50 are considered to be "active".

mucous secretion = assay: Inhibition of mucous secretion assay of Johnson; settings: for inhibition of mucous secretion (activity in words): induced mucous secretions; for preferred mucous inhibitors by the test results (in words): test results disclose
Text: According to this procedure compounds which inhibit or block enhancement of induced mucous secretions when tested are considered to be "active".

angiogenesis = assay: Chick embryo assay of Folkman (inhibition of angiogenesis / tumor growth); assay type: in vivo; settings: 50 μg/10 μl in the presence of heparin
Procedure: According to this procedure compounds which are considered to be "active" (i.e. antiangiogenic) give an avascular zone of 4 mm or greater in some embryos when tested at 50 μg/10 μl in the presence of 50 μg/10μ of heparin.

MDA formation = assay: Malonyldialdehyde (MDA) Formation Assay (rat brain synaptosomes); assay type: biochemical; settings: 10 min at 37°, pH 7.0; active = 50% or more at 200 μM or less
Procedure: Since lipid peroxidation is involved in the pathophysiology of center nervous system trauma, compounds which inhibit MDA formation are useful in treating the conditions listed below.
While not necessary to determine MDA formation, the above assays have been modified as follows: rat brain synaptosomes are prepared as described in the Example about the conjugated diene assay, except that the final wash of the synaptosomes and final suspension are in physiological (normal) saline in which the pH has been adjusted to 7.0. The synaptosomes are incubated for 10 min at 37° in physiological (normal) saline pH 7.0 (total volume=100 ul) containing; 10 ul synaptosomal suspension, 10% DMSO plus or minus drug, 150 uM Fe^+++ and 50 uM Fe++. The incubation is started by the rapid addition of iron to the otherwise complete reaction. The iron solutions are prepared fresh as ferric chloride and ferrous ammonium sulfate in argon-purged water. Following the 10 min incubation, the reaction is stopped by the addition of 500 ul ice-cold 12% trichloroacetic acid prepared in 0.5N hydrochloric acid. Water (300 ul) is then added along with 100 ul of freshly prepared thiobarbituric acid (3.3% in 0.5N sodium hydroxide) and 10 ul of 5 mM desferrioxamine. The sample is then heated in a boiling water bath for 20 minutes. The samples are cooled and centrifuged for 15 minutes at 1500×g and the absorbence of the supernatant fraction is read at 532 nm. The % inhibition of MDA formation is calculated by dividing the absorbance of sample containing drug by the absorbence of samples incubated without drug. Reaction blanks are samples incubated in the absence of iron. A compound that inhibits MDA formation by 50% or more at a concentration of 200 μM or less is considered "active".

interleukin-1 = assay: Inhibition of interleukin-1 induced T cell proliferation; assay type: cell-based; settings: for inhibition of interleukin 1 (activity in words): active = greater than 30% at 10^-6 M
Text: The inhibition of interleukin-1 induced T cell proliferation assay, Proc. Nat. […] Since people with arthritis make excess interleukin 1, compounds which inhibit the activity of interleukin 1 are useful in the treatment of arthritis. According to this procedure compounds which inhibit the activity of interleukin 1 greater that 30% at 10^-6 M are considered to be "active".

CS(=O)(=O)O.C[C@]12CCC(=O)C=C1CC[C@@H]1C2=CC[C@@]2(C)[C@H]1CC[C@]2(O)C(=O)CN1CCN(c2ccccn2)CC1 [Example 2, 17α-Hydroxy-21-[4-(2-pyridinyl)-1-piperazinyl]pregna-4,9(11)-diene-3,20-dione methanesulfonate]
inhibition of conjugated diene formation (activity in words) [1]: demonstrate such activity
arachidonic acid antagonism (activity in words) (arachidonic acid): demonstrate arachidonic acid antagonism
inhibition of mucous secretion (activity in words) (mucous secretion): demonstrate such activity
preferred mucous inhibitors by the test results (in words) (mucous secretion): preferred mucous inhibitors
% of Embryos with 4 mm or Greater Avascular Zone (angiogenesis): 85%

CCN(CC)c1cc(N2CCN(CC(=O)[C@@]3(O)CC[C@H]4[C@@H]5CCC6=CC(=O)CC[C@]6(C)C5=CC[C@@]43C)CC2)nc(N)n1 [Example 4, 21-[4-[2-Amino-6-(diethylamino)-4-pyrimidinyl]-1-piperazinyl]-17α-hydroxypregna-4,9(11)-diene-3,20-dione]
inhibition of conjugated diene formation (activity in words) [1]: demonstrate such activity
arachidonic acid antagonism (activity in words) (arachidonic acid): demonstrate arachidonic acid antagonism
inhibition of mucous secretion (activity in words) (mucous secretion): demonstrate such activity

C[C@]12CCC(=O)C=C1CC[C@@H]1C2=CC[C@@]2(C)[C@H]1CC[C@]2(O)C(=O)CN1CCC(O)(c2ccc(C(F)(F)F)cc2)CC1 [Example 5, 17α-Hydroxy-21-[4-hydroxy-4-(4-trifluoromethyl)-phenyl-1-piperidinyl]-pregna-4,9(11)-diene-3,20-dione]
inhibition of conjugated diene formation (activity in words) [1]: demonstrate such activity

C[C@H]1C[C@@H]2C(=CC[C@@]3(C)[C@H]2CC[C@]3(O)C(=O)CN2CCN(c3cc(N4CCCC4)nc(N4CCCC4)n3)CC2)[C@@]2(C)C=CC(=O)C=C12 [Example 47, 17α-hydroxy-6α-methyl-21-[4-[2,6-bis(1-pyrrolidinyl)-4-pyrimidinyl]-1-piperazinyl]pregna-1,4,9(11)-triene-3,20-dione (E)-2-butenodioate salt]
inhibition of conjugated diene formation (activity in words) [1]: demonstrate such activity
arachidonic acid antagonism (activity in words) (arachidonic acid): demonstrate arachidonic acid antagonism
inhibition of MDA formation (activity in words) (MDA formation): demonstrate such activity
inhibition of interleukin 1 (activity in words) (interleukin-1): demonstrate inhibition of interleukin 1

C[C@]12CCC(=O)C=C1CC[C@@H]1C2=CC[C@@]2(C)[C@H]1CC[C@]2(O)C(=O)CN1CCN(c2cccc(N3CCCC3)n2)CC1 [Example 62, 17α-hydroxy-21-[4-[6-(1-pyrrolidinyl)-2-pyridinyl]-1-piperazinyl] pregna-4,9(11)-diene-3,20-dione (E)-2-butenedioate (1:1) salt]
% of Control LD50 100 mg/kg (arachidonic acid; 100 mg/kg, test compound IV): 138%
arachidonic acid antagonism (activity in words) (arachidonic acid): demonstrate arachidonic acid antagonism
inhibition of MDA formation (activity in words) (MDA formation): demonstrate such activity

C[C@@H]1C[C@H]2[C@@H]3CCC4=CC(=O)C=C[C@]4(C)[C@H]3[C@H](O)C[C@]2(C)[C@H]1C(=O)CN1CCN(c2cc(N3CCCC3)nc(N3CCCC3)n2)CC1 [Example 84, 11α-hydroxy-16α-methyl-21-[4-[2,6-bis(1-pyrrolidinyl)-4-pyrimidinyl]-1-piperazinyl]pregna-1,4-diene 3,20-dione]
inhibition of conjugated diene formation (activity in words) [1]: demonstrate such activity
inhibition of interleukin 1 (activity in words) (interleukin-1): demonstrate inhibition of interleukin 1

C[C@@H]1C[C@H]2[C@@H]3CCC4=CC(=O)C=C[C@]4(C)C3=CC[C@]2(C)[C@H]1C(=O)CN1CCN(c2cc(N3CCOCC3)nc(N3CCOCC3)n2)CC1 [Example 86, 16α-methyl-21-[4-[2,6-bis(4-morpholino)-4-pyrimidinyl]-1-piperazinyl]-pregna-1,4,9(11)-triene-3,20-dione]
inhibition of conjugated diene formation (activity in words) [1]: demonstrate such activity
inhibition of MDA formation (activity in words) (MDA formation): demonstrate such activity
inhibition of interleukin 1 (activity in words) (interleukin-1): demonstrate inhibition of interleukin 1
% Inhibition at 10^-6 M (interleukin-1; interleukin 1, 10^-6 M): 84%
inhibition of angiogenesis (activity in words) (angiogenesis): demonstrate inhibition of angiogenesis

C[C@]12CCC(=O)C=C1CC[C@@H]1C2=CC[C@@]2(C)[C@H]1CC[C@]2(O)C(=O)CN1CCN(c2cc(N3CCOCC3)nc(N3CCOCC3)n2)CC1 [Example 105, 21-[4-(2,6-Bis(4-morpholino)-4-pyrimidinyl)-1-piperazinyl]-17α-hydroxypregna-4,9(11)-diene-3,20-dione dihydrochloride, hydrate]
inhibition of interleukin 1 (activity in words) (interleukin-1): demonstrate inhibition of interleukin 1
inhibition of mucous secretion (activity in words) (mucous secretion): demonstrate such activity
preferred mucous inhibitors by the test results (in words) (mucous secretion): preferred mucous inhibitors
inhibition of angiogenesis (activity in words) (angiogenesis): demonstrate inhibition of angiogenesis

C[C@]12C=CC(=O)C=C1CC[C@@H]1C2=CC[C@]2(C)[C@@H](C(=O)CN3CCN(c4cc(N5CCCC5)nc(N5CCCC5)n4)CC3)CC[C@@H]12.Cl.Cl [Example 111, 21-[4-(2,6-Bis(1-pyrrolidinyl)-4-pyrimidinyl)-1-piperazinyl]pregna-1,4,9(11)-triene-3,20-dione dihydrochloride]
inhibition of conjugated diene formation (activity in words) [1]: demonstrate such activity

CC(CN1CCN(c2cc(N3CCCC3)nc(N3CCCC3)n2)CC1)[C@H]1CC[C@H]2[C@@H]3CCC4=CC(=O)C=C[C@]4(C)[C@H]3CC[C@]12C.CS(=O)(=O)O.O (some centres unmarked) [Example 112, 21-[4-(2,6-Bis(1-pyrrolidinyl)-4-pyrimidinyl)-1-piperazinyl]-20-methylpregna-1,4-dien-3-one methanesulfonate, hydrate]
inhibition of conjugated diene formation (activity in words) [1]: demonstrate such activity
